Source: patent US20130108573A1, “Bile Acid Recycling Inhibitors for Treatment of Hypercholemia and Cholestatic Liver Disease” (Lumena Pharmaceuticals, Inc., priority 2011, published 2013)

Tested on: Serum Bile Acid and Fecal Bile Acid
Experiment: Phase 1 ascending multiple oral dose study of LUM001 in healthy adult subjects: serum and fecal bile acid analysis
Type: in vivo, human
Conditions: ascending multiple oral doses, 28 days, vs placebo
Description: This Phase 1 study was a randomized, double-blind, placebo-controlled study of ascending multiple oral doses of LUM001 in healthy, adult subjects. This study was conducted at a single center. There were 13 LUM001 dosing panels: 10, 20, 60, 100, and 20 mg every morning (qAM) (2) (i.e., the regimen was tested a second time in the study), 5 mg every evening (qPM), 0.5, 1, 2.5, 5, 2.5 (2), 5 (2), and 0.5 to 5 mg qAM dose titration. Most of the dosing panels included subjects treated with matching placebo. Shown in the graphs are data from the 0.5 (n=16), 1.0 (n=8), 2.5 (n=8), 5.0 (n=8) and 10 (n=8) mg dosing groups. […]
SBA were analyzed as part of the routine clinical analysis of the serum samples collected at each time point.
Fecal samples were collected for all panels except the dose-titration panel, 2.5 (2) and 5 mg (2), on Days 9 through 14 and 23 through 28 (data shown in FIG. 4). Twenty-four hour FBA excretions were quantified by Pharmacia for Days 9 through 14 and 23 through 28. […] The weight of each 24-hour fecal collection was recorded on the CRFs. […]
An aliquot for each 24-hour fecal sample collected on Days 23 through 28 was combined, homogenized, and analyzed for bile acid species concentrations by ANAPHARM. The fecal bile acid species evaluated include chenodeoxycholic acid, cholic acid, deoxycholic acid, and lithocholic acid.

CCCCC1(CCCC)CS(=O)(=O)c2ccc(N(C)C)cc2[C@@H](c2ccc(OCc3ccc(C[N+]45CCN(CC4)CC5)cc3)cc2)[C@H]1O [LUM001]
Fecal bile acids: significant increase | Serum bile acids: significant reduction
